Among the data in patent US10508077B2 (FORMA Therapeutics, Inc., priority 2015, dated 2019) are IC50 values, retold here.

Each structure is given as a SMILES string. pIC50: −log10 of the molar value. A value given as a limit tells only on which side of the number the result lay.

This experiment has as its target T1, Full length human recombinant HDAC8 protein (Homo sapiens, UniProt Q9BY41).
T1 construct: Full length human recombinant HDAC8 protein was expressed in baculoviral system; made in house
T1 sequence (Q9BY41 1-377): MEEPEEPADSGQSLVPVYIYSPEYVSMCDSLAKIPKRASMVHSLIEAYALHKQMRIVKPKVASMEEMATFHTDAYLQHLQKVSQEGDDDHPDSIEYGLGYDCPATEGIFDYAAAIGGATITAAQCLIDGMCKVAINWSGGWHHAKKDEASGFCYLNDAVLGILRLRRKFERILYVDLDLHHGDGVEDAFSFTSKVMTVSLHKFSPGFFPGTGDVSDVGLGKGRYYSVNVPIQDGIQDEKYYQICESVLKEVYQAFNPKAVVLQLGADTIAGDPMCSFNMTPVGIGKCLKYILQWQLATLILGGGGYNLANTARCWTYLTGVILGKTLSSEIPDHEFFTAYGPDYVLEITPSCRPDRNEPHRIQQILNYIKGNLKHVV
In words: In vitro histone deacetylase assay: enzymatic HDAC8 assay, electrophoretic mobility shift. In kind it is biochemical. The following applies: substrate RHKK(Ac)-NH2, 1 nM enzyme, compounds listed under IC50 range headings. A digest of the protocol: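 Baculovirus-expressed full-length human HDAC8 (1 nM) deacetylated 2 µM fluorescent RHKK(Ac)-NH2 peptide in pH 7.5 HEPES, 1% DMSO, at 25 °C, with 12 compound concentrations at 3× spacing. SDS-quenched; product and substrate resolved by microfluidic electrophoresis, P/(S+P) converted to percent inhibition, and IC50 obtained by 4-parameter fit.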
Background: In EMSA bound probe runs differently from free probe, usually more slowly.

Regarding `Cc1csc(CN2CCN(c3ccccc3/C=C/C(=O)NO)CC2)n1` [Example I-185, (E)-N-hydroxy-3-(2-(4-((4-methylthiazol-2-yl)methyl)piperazin-1-yl)phenyl)acrylamide], the pIC50 is greater than 6.00. In the case of `O=C(/C=C/c1ccccc1N1CCN(C(=O)Cc2ccccn2)CC1)NO` [Example I-296, (E)-N-hydroxy-3-(2-(4-(2-(pyridin-2-yl)acetyl)piperazin-1-yl)phenyl)acrylamide], the pIC50 is greater than 6.00. Turning to `O=C(/C=C/c1ccccc1N1CCC(NC(=O)Cc2cccs2)CC1)NO` [Example I-128, (E)-N-hydroxy-3-(2-(4-(2-(thiophen-2-yl)acetamido)piperidin-1-yl)phenyl)acrylamide], the pIC50 is greater than 6.00. As for `CC(C)(C)OC(=O)N1CCC2(CC1)CCN(c1ccccc1/C=C/C(=O)NO)C2` [Example I-111, tert-butyl (E)-2-(2-(3-(hydroxyamino)-3-oxoprop-1-en-1-yl)phenyl)-2,8-diazaspiro[4.5]decane-8-carboxylic], the figure is greater than 6.00; as for `O=C(/C=C/c1ccccc1N1CCN(S(=O)(=O)c2ccc3c(c2)OCCO3)CC1)NO` [Example I-28, (E)-3-(2-(4-((2,3-dihydrobenzo[b][1,4]di-oxin-6-yl)sulfonyl)piperazin-1-yl)phenyl)-N-hydroxyacrylamide], 5.00 to 6.00; as for `O=C(/C=C/c1ccccc1N1CCN(CCCC(F)(F)F)CC1)NO` [Example I-184, (E)-N-hydroxy-3-(2-(4-(4,4,4-trifluorobutyl)piperazin-1-yl)phenyl)acrylamide], greater than 6.00.

Turning to `Cn1cnc(S(=O)(=O)NC2CCN(c3ccccc3/C=C/C(=O)NO)CC2)c1` [Example I-237, (E)-N-hydroxy-3-(2-(4-((1-methyl-1H-imidazole)-4-sulfonamido)piperidin-1-yl)phenyl)acrylamide], the pIC50 was greater than 6.00.

As for `O=C(/C=C/c1ccccc1N1CCC(NS(=O)(=O)c2ccc3c(c2)NC(=O)CO3)CC1)NO` [Example I-236, (E)-N-hydroxy-3-(2-(4-((3-oxo-3,4-dihydro-2H-benzo[b][1,4]oxazine)-6-sulfonamido)piperidin-1-yl)phenyl)acrylamide], the pIC50 is greater than 6.00.

As to `Cc1nc(-c2ccccc2)sc1C(=O)Nc1ccccc1/C=C/C(=O)NO` [Example I-277, (E)-N-(2-(3-(hydroxyamino)-3-oxoprop-1-en-1-yl)phenyl)-4-methyl-2-phenylthiazole-5-carboxamide], the negative logarithm of the IC50 (pIC50) is greater than 6.00. For the compound `O=C(/C=C/c1ccccc1NS(=O)(=O)c1cccc(C(F)(F)F)c1)NO` [Example I-7, (E)-N-hydroxy-3-(2-(3-(trifluoromethyl)phenylsulfonamido)phenyl)acrylamide], the pIC50 is 5.00 to 6.00. In the case of `Cc1ccccc1Oc1ncccc1C(=O)NC1CCN(c2ccccc2/C=C/C(=O)NO)CC1` [Example I-141, (E)-N-(1-(2-(3-(hydroxyamino)-3-oxoprop-1-en-1-yl)phenyl)piperdin-4-yl)-2-(o-tolyloxy)nicotinamide], the pIC50 is greater than 6.00. As for `O=C(/C=C/c1ccccc1C(=O)Nc1ccccc1)NO` [II-2, (E)-2-(3-(hydroxyamino)-3-oxoprop-1-en-1-yl)-N-phenylbenzamide], the figure is 5.00 to 6.00; as for `CC(C)N(C(=O)c1cccc(C(F)(F)F)c1)c1ccccc1/C=C/C(=O)NO` [Example I-118, (E)-N-(2-(3-(hydroxyamino)-3-oxoprop-1-en-1-yl)phenyl)-N-isopropyl-3-(trifluoromethyl)benzamide], greater than 6.00. As for `CCS(=O)(=O)NC1CCN(c2ccccc2/C=C/C(=O)NO)CC1` [Example I-227, (E)-3-(2-(4-(ethylsulfonamido)piperidin-1-yl)phenyl)-N-hydroxyacrylamide], the negative logarithm of the IC50 (pIC50) is greater than 6.00. Take `O=C(/C=C/c1ccccc1N1CCN(C(=O)c2ccc3[nH]nnc3c2)CC1)NO` [Example I-215, (E)-3-(2-(4-(1H-benzo[d][1,2,3]triazole-5-carbonyl)piperazin-1-yl)phenyl)-N-hydroxyacrylamide]: the negative logarithm of the IC50 (pIC50) is greater than 6.00. The value for `Cc1nn(C)c(Cl)c1S(=O)(=O)N1CCN(c2ccccc2/C=C/C(=O)NO)CC1` [Example I-243, (E)-3-(2-(4-((5-chloro-1,3-dimethyl-1H-pyrazol-4-yl)sulfonyl)piperazin-1-yl)phenyl)-N-hydroxyacrylamide] was greater than 6.00; that for `CN1CCC(C)(CN2CCN(c3ccccc3/C=C/C(=O)NO)CC2)CC1` [Example I-187, (E)-3-(2-(4-((1,4-dimethylpiperidin-4-yl)methyl)piperazin-1-yl)phenyl)-N-hydroxyacrylamide] was greater than 6.00; that for `CSCC(=O)N1CCN(c2ccccc2/C=C/C(=O)NO)CC1` [Example I-194, (E)-N-hydroxy-3-(2-(4-(2-(methylthio)acetyl)piper-azin-1-yl)phenyl)acrylamide] was greater than 6.00. With `NC(=O)CCc1cccc(CNc2ccccc2/C=C/C(=O)NO)c1` [Example I-53, (E)-3-(2-((3-(3-amino-3-oxopropyl)benzyl)amino)phenyl)-N-hydroxyacrylamide], the pIC50 is greater than 6.00.

On to `Cc1c(C(=O)NC2CCN(c3ccccc3/C=C/C(=O)NO)CC2)cnn1-c1ccccc1` [Example I-16], for which the pIC50 is 5.00 to 6.00. On to `Cc1oc(-c2ccc(Cl)cc2)cc1C(=O)Nc1ccccc1/C=C/C(=O)NO` [Example I-272, (E)-5-(4-chlorophenyl)-N-(2-(3-(hydroxyamino)-3-oxoprop-1-en-1-yl)phenyl)-2-methylfuran-3-carboxamide], for which the pIC50 is greater than 6.00. As to `O=C(/C=C/c1ccccc1N1CCC(NC(=O)COc2ccc(Cl)cc2)CC1)NO` [Example I-10, (E)-3-(2-(4-(2-(4-chlorophenoxy)acetami-do)piperidin-1-yl)phenyl)-N-hydroxyacrylamide], the pIC50 is 5.00 to 6.00.

In the case of `O=C(/C=C/c1ccccc1N1CCC(NS(=O)(=O)c2ccc(C(F)(F)F)cc2)CC1)NO` [Example I-224, (E)-N-hydroxy-3-(2-(4-((4-(trifluoromethyl)phenyl)-sulfonamido)piperidin-1-yl)phenyl)acrylamide], the negative-log IC50 (pIC50) is greater than 6.00. For the compound `CNc1ccc(C(=O)NC2CCN(c3ccccc3/C=C/C(=O)NO)CC2)cc1` [Example I-133, (E)-N-(1-(2-(3-(hydroxyamino)-3-oxoprop-1-en-1-yl)phenyl)piperidin-4-yl)-4-(methylamino)benzamide], the pIC50 is greater than 6.00. In the case of `CCCCC(=O)NC1CCN(c2ccccc2/C=C/C(=O)NO)CC1` [Example I-125, (E)-N-(1-(2-(3-(hydroxyamino)-3-oxoprop-1-en-1-yl)phenyl)piperidin-4-yl)pentanamide], the pIC50 was greater than 6.00. `Cc1ccccc1C(C(=O)Nc1ccccc1/C=C/C(=O)NO)C(C)C` (stereo not drawn) [Example I-278, (E)-N-(2-(3-(hydroxyamino)-3-oxoprop-1-en-1-yl)phenyl)-3-methyl-2-(o-tolyl)butanamide]: the pIC50 was greater than 6.00. Consider `CC(C)c1ccc(CNc2ccccc2/C=C/C(=O)NO)nc1` [Example I-87, (E)-N-hydroxy-3-(2-(((5-isopropylpyridin-2-yl)methyl)amino)phenyl)acrylamide], for which the pIC50 was greater than 6.00.

Take `CN(C)CC1(CN2CCN(c3ccccc3/C=C/C(=O)NO)CC2)CCCC1` [Example I-186, (E)-3-(2-(4-((1-((dimethylamino)methyl)cyclopentyl)methyl)piperazin-1-yl)phenyl)-N-hydroxyacrylamide]: the pIC50 was greater than 6.00.

Take `CC1(CCC(=O)NC2CCN(c3ccccc3/C=C/C(=O)NO)CC2)CC1` [Example I-143, (E)-N-hydroxy-3-(2-(4-(3-(1-methylcyclopropyl)propan-amido)piperidin-1-yl)phenyl)acrylamide]: the pIC50 is greater than 6.00.

On to `NC(=O)C1CCC2(CC1)CCN(c1ccccc1/C=C/C(=O)NO)CC2` [Example I-108, (E)-3-(2-(3-(hydroxyamino)-3-oxoprop-1-en-1-yl)phenyl)-3-azaspiro[5.5]undecane-9-carboxamide], for which the pIC50 is greater than 6.00. The value for `CS(=O)(=O)CCCC(=O)N1CCN(c2ccccc2/C=C/C(=O)NO)CC1` [Example I-201, (E)-N-hydroxy-3-(2-(4-(4-(methylsulfonyl)butanoyl)piperazin-1-yl)phenyl)acrylamide] was greater than 6.00; that for `NC1CC2(CN(c3ccccc3/C=C/C(=O)NO)C2)S(=O)(=O)C1` (stereo not drawn) [Example I-117, (E)-3-(2-(7-amino-5,5-dioxido-5-thia-2-azaspiro[3.4]octan-2-yl)phenyl)-N-hydroxyacrylamide 2,2,2-trifluoroacetate] was greater than 6.00; that for `COc1ccccc1S(=O)(=O)NC1CCN(c2ccccc2/C=C/C(=O)NO)CC1` [Example I-238, (E)-N-hydroxy-3-(2-(4-((2-methoxyphenyl)sulfon-amido)piperidin-1-yl)phenyl)acrylamide] was greater than 6.00. As to `Cn1cnc(S(=O)(=O)N2CCN(c3ccccc3/C=C/C(=O)NO)CC2)c1` [Example I-258, (E)-N-hydroxy-3-(2-(4-((1-methyl-1H-imidazol-4-yl)sulfonyl)piperazin-1-yl)phenyl)acrylamide], the pIC50 was greater than 6.00. The value for `Cc1ccccc1S(=O)(=O)N1CCN(c2ccccc2/C=C/C(=O)NO)CC1` [Example I-247, (E)-N-hydroxy-3-(2-(4-(o-tolylsulfonyl)piperazin-1-yl)phenyl)acrylamide] was greater than 6.00; that for `CN(Cc1cccc(C(F)(F)F)c1)C(=O)c1ccccc1/C=C/C(=O)NO` [II-18] was greater than 6.00.

Usually pIC50 stands for the negative decadic logarithm of the IC50, by convention in mol/L.
